Reference: PubChem BioAssay (NCI)
Where “and” joins values, the source holds several entries; their conditions need not be identical. Equal entries are not always repeated.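 Step 1: Grow cells in 96-well plates. Step 2: Expose to compound for 48 hours at 5 concentrations. Step 3: Interpolate endpoints linearly; if unreached, use highest concentration. At the GI50, growth is halved. Definition used: TGI = concentration required for complete inhibition of growth.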

What was measured:
Experiment in all cases: NCI anticancer screen, dose series, 48 h
[1] = test system: OVCAR-4 ovarian
[2] = test system: IGROV1 ovarian
[3] = test system: EKVX NSCLC
[4] = test system: HOP-62 NSCLC
[5] = test system: SK-MEL-5 melanoma
[6] = test system: HL-60(TB) leukemia
[7] = test system: 786-0 renal
[8] = test system: HCT-116 colon
[9] = test system: SNB-75 CNS
[10] = test system: HCT-15 colon

## CSC1=NC=CCN1C
[1]
  TGI: > 100 µM
[2]
  TGI: > 100 µM
[3]
  TGI: > 100 µM
[4]
  TGI: > 100 µM
[5]
  TGI: > 100 µM
[6]
  TGI: > 100 µM
[7]
  TGI: > 100 µM
[8]
  TGI: > 100 µM
[9]
  TGI: > 100 µM
[10]
  TGI: > 100 µM

## CCn1c(-c2nonc2N)nc2c(C#CCN)ncc(OCCCN)c21
[1]
  GI50: > 25 µM
  TGI: > 25 µM
[2]
  GI50: > 25 µM
  TGI: > 25 µM
[3]
  GI50: > 25 µM
  TGI: > 25 µM
[4]
  GI50: > 25 µM
  TGI: > 25 µM
[5]
  GI50: > 25 µM
  TGI: > 25 µM
[6]
  GI50: > 25 µM
  TGI: > 25 µM
[7]
  GI50: > 25 µM
  TGI: > 25 µM
[8]
  GI50: > 25 µM
  TGI: > 25 µM
[9]
  GI50: > 24.2 µM
  TGI: > 25 µM
[10]
  GI50: > 25 µM
  TGI: > 25 µM

## COC1O[C@H]2CCN(C(=O)OCc3ccccc3)[C@H]2[C@H]1OCc1ccccc1 (some centres undefined)
[1]
  TGI: > 100 µM
[2]
  TGI: > 100 µM
[3]
  TGI: > 100 µM
[4]
  TGI: > 100 µM
[5]
  TGI: 64.6 µM
[6]
  TGI: 68.6 µM
[7]
  TGI: > 100 µM
[8]
  TGI: > 100 µM
[9]
  TGI: > 100 µM
[10]
  TGI: > 100 µM

## CC(=O)[CH-]C(=O)c1ccccc1.CC(=O)[CH-]C(=O)c1ccccc1.CCCCCCCCCCCCCCCCCC(=O)[O-].CCCCCCCCCCCCCCCCCC(=O)[O-].[Ti+4]
[1]
  GI50: 16.6 µM
  TGI: 31.8 µM
[2]
  GI50: 34.9 µM
  TGI: > 100 µM
[3]
  GI50: 74.2 µM
  TGI: > 100 µM
[4]
  GI50: 30.7 µM
  TGI: 90.9 µM
[5]
  GI50: 21 µM
  TGI: 48.2 µM
[6]
  GI50: 19.3 µM
  TGI: 43.9 µM
[7]
  GI50: 18.8 µM
  TGI: 33.2 µM
[8]
  GI50: 18.3 µM
  TGI: 36.5 µM
[9]
  GI50: 11.7 µM
  TGI: 25.5 µM
[10]
  GI50: 32.9 µM
  TGI: 69.6 µM

## Clc1ccccc1C(c1ccccc1)(c1ccccc1)n1ccnc1
[1]
  GI50: 2.95 µM
  TGI: 15.5 µM and 41.3 µM
[2]
  GI50: 3.35 µM
  TGI: 18.7 µM and 22.9 µM
[3]
  GI50: 2.41 µM
  TGI: 13.7 µM and 23.7 µM
[4]
  GI50: 2.99 µM
  TGI: 12.5 µM and 26.6 µM
[5]
  GI50: 2.61 µM
  TGI: 10.4 µM and 22.3 µM
[6]
  GI50: 1.72 µM
  TGI: 5.21 µM
[7]
  GI50: 3.05 µM
  TGI: 10.6 µM and 43 µM
[8]
  GI50: 1.44 µM
  TGI: 3.35 µM and 23 µM
[9]
  GI50: 2.14 µM
  TGI: 8.72 µM and 35.5 µM
[10]
  GI50: 2.58 µM
  TGI: 12.5 µM and 22.7 µM

## COc1cc2ncn(-c3cc(OCc4ccccc4Cl)c(C(N)=O)s3)c2cc1OC
[1]
  GI50: 2.09 µM
  TGI: > 25 µM
[2]
  GI50: 0.552 µM
  TGI: > 25 µM
[3]
  GI50: 1.25 µM
  TGI: > 25 µM
[4]
  GI50: 0.217 µM
  TGI: 7.15 µM
[5]
  GI50: 0.0993 µM
  TGI: 3.13 µM
[6]
  GI50: 0.0741 µM
[7]
  GI50: 0.873 µM
  TGI: > 22.8 µM
[8]
  GI50: 0.233 µM
  TGI: > 22.1 µM
[9]
  GI50: 0.707 µM
  TGI: 6.47 µM
[10]
  GI50: 0.269 µM
  TGI: > 25 µM

## O=C(C#Cc1c[nH]c(=O)[nH]c1=O)c1ccccc1Cl
[1]
  TGI: 31.1 µM
[2]
  TGI: 35 µM
[3]
  TGI: 36.5 µM
[4]
  TGI: > 100 µM
[5]
  TGI: 28.8 µM
[6]
  TGI: 48.1 µM
[7]
  TGI: 32 µM
[8]
  TGI: 30.9 µM
[9]
  TGI: 39.6 µM
[10]
  TGI: 28.7 µM

## CSc1nc(SC)c2c(CN=[N+]=[N-])c(Br)n(Cc3ccccc3)c2n1
[1]
  TGI: > 100 µM
[2]
  TGI: > 100 µM
[3]
  TGI: > 100 µM
[4]
  TGI: > 100 µM
[5]
  TGI: > 100 µM
[6]
  TGI: > 100 µM
[7]
  TGI: > 100 µM
[8]
  TGI: > 100 µM
[9]
  TGI: > 100 µM
[10]
  TGI: > 100 µM
